{"source": "ChEMBL document CHEMBL4422679", "about": "“Unexpected equivalent potency of a constrained chromene enantiomeric pair rationalized by co-crystal structures in complex with estrogen receptor alpha” (Bioorg Med Chem Lett, 2019)", "key": {"[1]": {"assay": "Oral bioavailability in Sprague-Dawley rat at 1 mg/kg", "assay_type": "ADME, organism-based", "settings": "in vivo"}, "MCF7": {"test_system": "MCF7", "assay": "Antiproliferative activity against human MCF7 cells after 3 days by CellTiter-Glo luminescent cell viability assay", "assay_type": "functional, cell-based"}, "[2]": {"assay": "Octanol-buffer distribution coefficient, log D of the compound at pH 7.4", "assay_type": "physicochemical"}, "Rattus norvegicus [3]": {"test_system": "Rattus norvegicus", "assay": "In vivo antagonist activity at estrogen receptor in Sprague-Dawley rat assessed as reduction in ethynylestradiol-stimulated increase in uterine wet weight at 0.1 mg/kg, po administered once daily via gavage for 3 days measured 24 hrs post last dose relative to control", "assay_type": "functional", "set-up": "scale not given: the % may be the effect or the level left"}, "Rattus norvegicus [4]": {"test_system": "Rattus norvegicus", "assay": "In vivo antagonist activity at estrogen receptor in Sprague-Dawley rat assessed as reduction in ethynylestradiol-stimulated increase in uterine wet weight administered once daily via oral gavage for 3 days measured 24 hrs post last dose", "assay_type": "functional, organism-based"}, "[5]": {"assay": "Clearance in Sprague-Dawley rat at 1 mg/kg, iv or 1 mg/kg, po", "assay_type": "ADME, organism-based", "settings": "in vivo"}, "Rattus norvegicus [6]": {"test_system": "Rattus norvegicus", "assay": "In vivo antagonist activity at estrogen receptor in Sprague-Dawley rat assessed as reduction in ethynylestradiol-stimulated increase in uterine wet weight at 10 mg/kg, po administered once daily via gavage for 3 days measured 24 hrs post last dose relative to control", "assay_type": "functional", "set-up": "scale not given: the % may be the effect or the level left"}, "Estrogen receptor": {"target": "T1, Estrogen receptor (Homo sapiens, UniProt P03372)", "T1 sequence (P03372 whole entry)": "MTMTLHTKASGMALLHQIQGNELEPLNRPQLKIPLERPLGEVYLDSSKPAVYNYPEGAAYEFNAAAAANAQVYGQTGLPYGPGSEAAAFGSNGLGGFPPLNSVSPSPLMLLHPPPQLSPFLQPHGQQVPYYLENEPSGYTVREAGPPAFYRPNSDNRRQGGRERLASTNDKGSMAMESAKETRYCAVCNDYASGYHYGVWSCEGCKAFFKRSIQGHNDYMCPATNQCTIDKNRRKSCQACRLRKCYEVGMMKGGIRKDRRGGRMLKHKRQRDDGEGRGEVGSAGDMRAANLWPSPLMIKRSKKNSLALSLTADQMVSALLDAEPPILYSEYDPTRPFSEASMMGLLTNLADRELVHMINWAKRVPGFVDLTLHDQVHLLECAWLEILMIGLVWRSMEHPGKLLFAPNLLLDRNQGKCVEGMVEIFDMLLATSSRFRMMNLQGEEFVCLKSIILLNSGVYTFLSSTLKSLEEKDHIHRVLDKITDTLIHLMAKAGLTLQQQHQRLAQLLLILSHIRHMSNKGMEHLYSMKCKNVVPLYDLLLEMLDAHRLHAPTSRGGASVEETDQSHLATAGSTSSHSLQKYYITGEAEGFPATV", "description": "Induction of ERalpha degradation in human MCF7 cells after 4 hrs by Alexafluor-488 conjugate anti-mouse IgG antibody/Hoechst 33342 staining based immunofluorescence imaging analysis"}, "Rattus norvegicus [7]": {"test_system": "Rattus norvegicus", "assay": "In vivo antagonist activity at estrogen receptor in Sprague-Dawley rat assessed as reduction in ethynylestradiol-stimulated increase in uterine wet weight at 60 mg/kg, po administered once daily via gavage for 3 days measured 24 hrs post last dose relative to control", "assay_type": "functional", "set-up": "scale not given: the % may be the effect or the level left"}}}
{"smiles": "Oc1ccc2c(c1)O[C@@H](c1ccc(OCCN3CC(CF)C3)cc1)C1=C2CCOc2cc(O)ccc21", "values": [{"measurement": "bioavailability", "setting": "[1]", "result": 3.2, "unit": "%"}, {"measurement": "IC50", "setting": "MCF7; Homo sapiens, MCF7, 72 h", "result": 400, "unit": "pM"}, {"measurement": "logD", "setting": "[2]", "result": 3}, {"measurement": "Activity", "setting": "Rattus norvegicus [3]", "result": 17, "unit": "%"}, {"measurement": "Activity", "setting": "Rattus norvegicus [4]", "result": "Dose-dependent effect"}, {"measurement": "clearance", "setting": "[5]", "result": 57, "unit": "mL/min/kg"}, {"measurement": "Activity", "setting": "Rattus norvegicus [6]", "result": 87, "unit": "%"}]}
{"smiles": "CC1=C(c2cccc(O)c2)[C@H](c2ccc(OCCN3CC(CF)C3)cc2)Oc2ccc(O)cc21", "values": [{"measurement": "bioavailability", "setting": "[1]", "result": 16, "unit": "%"}, {"measurement": "IC50", "setting": "MCF7; Homo sapiens, MCF7, 72 h", "result": 200, "unit": "pM"}, {"measurement": "logD", "setting": "[2]", "result": 2.9}, {"measurement": "clearance", "setting": "[5]", "result": 85, "unit": "mL/min/kg"}, {"measurement": "Activity", "setting": "Rattus norvegicus [6]", "result": 105.7, "unit": "%"}]}
{"smiles": "C[C@@H](COc1ccc(C2Oc3cc(O)ccc3C3=C2c2ccc(O)cc2OCC3)cc1)N1CC[C@@H](CF)C1", "note": "(some centres not stated)", "values": [{"measurement": "IC50", "setting": "MCF7; Homo sapiens, MCF7, 72 h", "result": 200, "unit": "pM"}]}
{"smiles": "Oc1ccc2c(c1)O[C@H](c1ccc(OCCN3CC(CF)C3)cc1)C1=C2CCOc2cc(O)ccc21", "values": [{"measurement": "IC50", "setting": "MCF7; Homo sapiens, MCF7, 72 h", "result": 900, "unit": "pM"}, {"measurement": "logD", "setting": "[2]", "result": 3.2}]}
{"smiles": "Oc1ccc2c(c1)OC(c1ccc(OCCN3CC[C@@H](CF)C3)cc1)C1=C2CCOc2cc(O)ccc21", "note": "(some centres not stated)", "values": [{"measurement": "IC50", "setting": "MCF7; Homo sapiens, MCF7, 72 h", "result": 300, "unit": "pM"}]}
{"smiles": "Oc1ccc2c(c1)OC(c1ccc(OCCN3CCCCC3)cc1)C1=C2CCOc2cc(O)ccc21", "note": "(racemic)", "values": [{"measurement": "IC50", "setting": "MCF7; Homo sapiens, MCF7, 72 h", "result": 1200, "unit": "pM"}, {"measurement": "IC50", "setting": "Estrogen receptor", "result": 280, "unit": "pM"}]}
{"smiles": "Oc1ccc2c(c1)OC(c1ccc(OCCN3CC(CF)C3)cc1)C1=C2CCOc2cc(O)ccc21", "note": "(racemic)", "values": [{"measurement": "IC50", "setting": "MCF7; Homo sapiens, MCF7, 72 h", "result": 700, "unit": "pM"}]}
{"smiles": "Oc1ccc2c(c1)OCCC1=C2C(c2ccc(OCCN3CC(CF)C3)cc2)Oc2ccc(O)cc21", "note": "(stereo in doubt; 17a)", "values": [{"measurement": "IC50", "setting": "MCF7; mcf7", "result": 300, "unit": "pM"}]}
{"smiles": "Oc1ccc2c(c1)OCCC1=C2C(c2ccc(OCCN3CC(CF)C3)cc2)Oc2ccc(O)cc21", "note": "(stereo in doubt; 17b)", "values": [{"measurement": "IC50", "setting": "MCF7; Homo sapiens, MCF7, 72 h", "result": 600, "unit": "pM"}, {"measurement": "logD", "setting": "[2]", "result": 2.7}, {"measurement": "clearance", "setting": "[5]", "result": 237, "unit": "mL/min/kg"}]}
{"smiles": "Oc1ccc2c(c1)OC(c1ccc(OCCN3CC(CF)C3)cc1)C1=C2CCOc2ccc(O)cc21", "note": "(stereo in doubt; 18a)", "values": [{"measurement": "IC50", "setting": "MCF7; mcf7", "result": 5000, "unit": "pM"}, {"measurement": "IC50", "setting": "Estrogen receptor", "result": 610, "unit": "pM"}]}
{"smiles": "Oc1ccc2c(c1)OC(c1ccc(OCCN3CC(CF)C3)cc1)C1=C2CCOc2ccc(O)cc21", "note": "(stereo in doubt; 18b)", "values": [{"measurement": "IC50", "setting": "MCF7; mcf7", "result": 20000, "unit": "pM"}, {"measurement": "IC50", "setting": "Estrogen receptor", "result": 9600, "unit": "pM"}]}
{"smiles": "Oc1ccc2c(c1)C1=C(c3cc(O)ccc3OCC1)C(c1ccc(OCCN3CC(CF)C3)cc1)O2", "note": "(stereo in doubt; 19a)", "values": [{"measurement": "IC50", "setting": "MCF7; mcf7", "result": 800, "unit": "pM"}, {"measurement": "IC50", "setting": "Estrogen receptor", "result": 240, "unit": "pM"}]}
{"smiles": "Oc1ccc2c(c1)C1=C(c3cc(O)ccc3OCC1)C(c1ccc(OCCN3CC(CF)C3)cc1)O2", "note": "(stereo in doubt; 19b)", "values": [{"measurement": "IC50", "setting": "MCF7; mcf7", "result": 10000, "unit": "pM"}, {"measurement": "IC50", "setting": "Estrogen receptor", "result": 3200, "unit": "pM"}]}
{"smiles": "CC/C(=C(\\c1ccccc1)c1ccc(OCCN(C)C)cc1)c1ccccc1", "note": "[TAMOXIFEN]", "values": [{"measurement": "Activity", "setting": "Rattus norvegicus [7]", "result": 36, "unit": "%"}]}
